Measured values reported in patent publication US20210071180A1, “MICRORNA 584-5P COMPOSITIONS AND METHODS FOR TREATING CANCER” (BOARD OF REGENTS, THE UNIVERSY OF TEXAS SYSTEM, priority 2018, published 2021).

How the values were obtained:
Format in all cases: cell-based
D556Med cells = assay: c-Myc overexpression rescue, cell viability/clonogenic/migration; conditions: cells transfected with c-Myc expression vector
Protocol: FIG. 15A depicts a photomicrograph showing migrated MB cells transfected with control plasmid, c-Myc overexpression plasmid or c-Myc overexpression plasmid+miR-584-5p mimic.
Because c-Myc supports cancer stem cell growth, promotes radioresistance (Gravina, G. L. et al. Radiat Res 185, 411-422, (2016)), and has elevated levels in VCR-resistant cancer cells (He, Y., Zhang, J., Zhang, J. & Yuan, Y. Chin Med J (Engl) 113, 848-851 (2000)), it was tested whether miR-584-5p and its target genes may regulate c-Myc-amplified MB growth and therapy sensitization by targeting c-Myc levels/functions. […] In FIG. 14D, the p-values were calculated using standard Student t-tests. Error bars represent mean±SEM. Because no predicted miR-584-5p binding site exists in the c-Myc 3′-UTR, miR-584-5p probably regulates c-Myc levels indirectly. To test that possibility, it was assessed whether miR-584-5p target genes may regulate c-Myc levels in MB. Moreover, eIF4E1 (not eIF4E3) induced c-Myc protein expression in diffuse B-cell lymphoma cells (Landon, A. L. et al. Nat Commun 5, 5413, (2014)). […] Cell viability was assessed using alamarBlue. The p-value was calculated using one-way ANOVA followed by Sidak's multiple-comparisons test. […]

D458Med cells = assay: miRNA mimic library screen, CellTiter-Glo cell viability; conditions: screen of 1,902 miRNA mimics, VCR at IC20
Protocol: To identify miRNAs that may sensitize VCR response in MB, a high-throughput screening platform was combined with a library of 1,902 chemically synthesized human miRNA mimics. The miRNAs are arrayed in a one-miRNA-one-well format in 96-well microtiter plates. Reverse transfection of Group 3/c-Myc-amplified D458Med cells was performed in triplicate in the presence and absence of a sublethal dose of VCR, which was optimized in four MB cell lines before the screen (FIG. 2A). Cells were subjected to VCR at an IC20 lethal concentration for 72 hours after 48 hours of transfection, and cell viability was measured (FIG. 1A). Candidate miRNAs were prioritized for validation by functional and interaction assays using standard Student t-tests (with pooled variance), false discovery rate (Q=0.5%), and by using the magnitude of response (lowest 2.5 percentile of the distribution of the μVCR/μControl ratios).
miRNA mimic library screen. The primary screen was conducted using MI00200 MISSION microRNA Mimic v.17, in which miRNA mimics were arrayed in a one-miRNA-one-well format in 96-well microtiter plates. […] Cell viability was assessed using CellTiter-Glo (Promega, Madison, Wis., USA) according to the manufacturer's protocol. ath-miR-416 or cel-miR-243 was added as a negative control, whereas siRNA against PLK-1 was used as a positive control in each plate. […]

3′-UTR of eIF4E3 = assay: Dual luciferase 3′-UTR reporter assay (eIF4E3); conditions: miR-584-5p mimic in comparison with scrambled
Protocol: Dual luciferase assay. Wild-type or mutant 3′-UTR segments of the eIF4E3 and HDAC1 gene were cloned downstream of the luciferase gene in pGL3-promoter vector at the SacI and SpeI restriction sites. HEK293 cells were cotransfected with Renilla luciferase vector (pRLnull 380) and firefly luciferase vector containing pGL3-wt-eIF4E3; pGL3-mut-eIF4E3; or pGL3-wt-HDAC1, pGL3-mut-HDAC1, or pGL3 overnight and incubated in fresh complete medium for an additional 48 hours after transfection. Cells were then transfected with miRNA mimic (Invitrogen) for 24 hours. Next, cells were harvested with 1× passive lysis buffer (Promega) and luciferase activity was read using GLOMAX 20/20 luminometer (Promega).
Data are z-transformed. The cutoff criteria for each gene are fold change >2, sample intensity >10, and p-value <0.05. […] To validate the gene expression analysis and target prediction results, it was determined whether miR-584-5p reduced HDAC1/eIF4E3 expression by binding to their 3′-untranslated regions (3′-UTRs). […] Also shown are the portion of the miR-584-5p sequence (SEQ ID NO: 15; UAUGGUU) that binds to the wild-type 3′UTR and seed sequence mutant (SEQ ID NO: 16; […], top panel; and SEQ ID NO: 17; […]; bottom panel). Also shown is miR-584-5p seed sequence mutated sequences. […] The p-values were calculated using standard Student t-tests. […] The p-values were calculated using standard Student t-tests.

Substance: miR-584-5p: microRNA mimic; nucleotide sequence UUAUGGUUUGCCUGGGACUGAG (SEQ ID NO: 1); purchased from Thermofisher (chemistry not given here)
- growth-promoting effect of c-Myc overexpression (D556Med cells): rescues cancer growth-promoting effects of c-Myc
- difference in cell viability in VCR-treated MB cells in comparison with untreated cells (D458Med cells): highest magnitude of difference in cell viability
- luciferase activity, eIF4E3 3′-UTR with mutated miR-584-5p binding sites (3′-UTR of eIF4E3): no change in luciferase activity
- luciferase activity, wild-type eIF4E3 3′-UTR construct (3′-UTR of eIF4E3): significantly reduced
